Here are results for 1 compound from patent US9505728B2, “Triazolone compounds and uses thereof” (INCEPTION 2, INC., priority 2012, dated 2016).

Like-named read-outs stand apart in the source and are kept apart here.

One experiment has as its target T1, Human PPARα (Homo sapiens, UniProt Q07869).
T1 construct: host or cells: proprietary non-human mammalian cells
T1 sequence (Q07869 1-468): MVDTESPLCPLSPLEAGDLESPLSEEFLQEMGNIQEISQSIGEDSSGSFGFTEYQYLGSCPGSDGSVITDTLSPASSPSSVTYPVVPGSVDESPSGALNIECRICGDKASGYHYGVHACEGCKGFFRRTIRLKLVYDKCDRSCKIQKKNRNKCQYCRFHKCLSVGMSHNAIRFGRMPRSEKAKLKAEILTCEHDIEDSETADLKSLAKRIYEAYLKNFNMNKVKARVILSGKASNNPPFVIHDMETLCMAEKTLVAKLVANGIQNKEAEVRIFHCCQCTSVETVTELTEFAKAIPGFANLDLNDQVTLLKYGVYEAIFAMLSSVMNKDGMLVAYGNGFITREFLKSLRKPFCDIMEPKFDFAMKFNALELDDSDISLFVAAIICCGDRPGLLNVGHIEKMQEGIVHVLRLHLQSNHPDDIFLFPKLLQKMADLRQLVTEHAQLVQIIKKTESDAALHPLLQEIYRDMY
As to the kind of experiment: Human PPARα Reporter Assay (luciferase). Format: cell-based. The method, boiled down: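 Non-human mammalian cells constitutively expressing human PPARα with a PPARα-responsive luciferase reporter were dosed with compounds right after plating. After overnight incubation, media removed and detection reagent added; luminescence taken as proportional to PPARα activation, agonist or antagonist mode.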
(Reporter assays use an easily measured gene product as a stand-in for the process of interest.)

A further experiment has as its target T2, Thyroid Receptor β (Homo sapiens, UniProt P10828).
T2 construct: host or cells: engineered reporter cells of the kit
T2 sequence (P10828 1-461): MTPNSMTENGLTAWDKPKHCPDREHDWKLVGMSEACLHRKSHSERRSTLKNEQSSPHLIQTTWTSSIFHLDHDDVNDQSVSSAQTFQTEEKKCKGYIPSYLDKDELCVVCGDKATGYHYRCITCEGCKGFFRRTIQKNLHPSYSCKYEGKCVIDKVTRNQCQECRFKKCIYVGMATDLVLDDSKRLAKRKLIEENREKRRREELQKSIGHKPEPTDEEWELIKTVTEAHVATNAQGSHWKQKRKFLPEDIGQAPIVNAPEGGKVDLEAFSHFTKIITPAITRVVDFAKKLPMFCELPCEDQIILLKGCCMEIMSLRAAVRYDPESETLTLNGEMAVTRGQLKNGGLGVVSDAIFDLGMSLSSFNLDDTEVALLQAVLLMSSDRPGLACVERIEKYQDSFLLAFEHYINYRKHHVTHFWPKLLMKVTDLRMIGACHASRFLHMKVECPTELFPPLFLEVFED
The experiment can be described thus: Target selectivity counterscreen, Thyroid Receptor β reporter assay. The settings on record: receptor agonist at ~EC80. Format: cell-based. As to the method:
Target Selectivity Assays
To determine species selectivity, a Mouse PPARα Reporter Assay System was used (Indigo Biosciences, Cat. #M00111). Activity of test compounds to antagonize or agonize other isoforms of human PPAR, for example β/δ and γ, were assessed using the corresponding kits from Indigo Biosciences (Cat. #IB00121 and #IB00101, respectively). In addition to PPAR activity, compounds were also screened for activity against other nuclear hormone receptors including Estrogen Receptor β, Glucocorticoid Receptor and Thyroid Receptor β using commercially available kits (Indigo Biosciences, Cat. #IB00411, IB00201 and IB01101, respectively). Each assay system from Indigo Biosciences uses technology analogous to the human PPARα kit, with the variance being that the cells used for each assay were engineered to over-express the receptor of interest. In addition, the appropriate receptor agonist (included with each kit) was used at ˜EC80 for assays in which antagonist potency was being assessed.

A further experiment deals with B16F10 melanoma cells. The experiment can be described thus: In vivo cancer model: B16F10 model of pulmonary metastasis. On the set-up: species or system C57BL6 mice. The note with it: intraperitoneal doses at 0.3, 3 and 30 mg/kg, daily, day 21, FIG. 1. As to the method:
In Vivo Cancer Model: B16F10 Model of Pulmonary Metastasis
B16F10 cells were cultured in standard growth media, harvested when approximately 50% confluent and injected into C57BL6 mice via the tail vein (50,000 cells per mouse in 200 μL). Mice were then treated daily with test compound. On day 21, mice were euthanized. Lungs were harvested and placed into Fekete's solution overnight to facilitate visualization of the tumors. Black nodules were enumerated.
Statistics were performed by ANOVA with Dunnett's Multiple Comparison Test post-hoc to determine statistical differences from vehicle treatment group (* denotes P<0.05 while *** denotes P<0.001).

As to `CCn1c(CCCc2ccc(-c3ccc(NS(=O)(=O)c4ccccc4)cn3)cc2)nn(Cc2ccc(C(C)(C)C)cc2)c1=O` [Example 10, N-(6-(4-(3-(1-(4-(tert-Butyl)benzyl)-4-ethyl-5-oxo-4,5-dihydro-1H-1,2,4-triazol-3-yl)propyl)phenyl)pyridin-3-yl)benzenesulfonamide], the IC50 – broadly, the concentration needed to halve the response being measured – is 67 nM on Human PPARα (counterscreen table, antagonist potency, read-out: PPAR alpha IC50); 67 nM at Human PPARα (human PPARα reporter cells, overnight incubation, antagonism, read-out: Luciferase IC50); more than 10000 nM at Thyroid Receptor β. Moreover, the “metastasis of B16F10 melanoma cells to the lung (black nodules enumerated)” value in the experiment with B16F10 melanoma cells is “inhibition of metastasis”.
